Read-outs that look alike come from different tables or passages of the source.
How the values were obtained:
Conditions in all cases: Homo sapiens
MCF-7 = assay: MTT cancer cell proliferation assay, MCF-7; type: cell-based, human
Description: (§1) In Vitro Determination of Effects of Synthesized Diterpenoids on Cancer Cell Proliferation. Breast cancer cell lines MCF-7, MDA-MB-231, […] and MCF/ADR were seeded in 96-well plates at a density of 1×10^4 cells/well and treated with DMSO and 0.01, 0.1, 1, 5, 10, and 100 μM of individual compound for 48 h, and then 20 μL of 3-(4,5-dimethylthiazol-2-yl)-2,5-diphenyltetrazolium bromide (MTT) (5 mg/mL in PBS) was added to each well and further incubated for another 4 h. Then MTT solution was removed, and 150 μL of DMSO was added to each well. Absorbance of all wells was determined by measuring OD at 550 nm after a 10 min incubation on a 96-well GlowMaxate absorbance reader (Promega, Madison, Wis.). Each individual compound was tested in quadruplicate wells for each concentration.
(§2) The growth inhibitory effects of the newly generated pyran-fused diterpenoids were evaluated in four breast cancer cell lines MCF-7 (ER-positive), MDAMB-231 (ER-negative and triple-negative), MDA-MB-468 (ER-negative and triple-negative) as well as MCF-7/ADR (adriamycin-resistant) using MTT assays as described in the Experimental Section.

MDA-MB-231 = assay: MTT cancer cell proliferation assay, MDA-MB-231; type: cell-based, human
Description: as §1, §2

AsPC1 = assay: Cancer cell proliferation assay, AsPC1; type: cell-based
Description: (§3) In Vitro Determination of Effects of Synthesized Diterpenoids on Cancer Cell Proliferation. […] Then MTT solution was removed, and 150 μL of DMSO was added to each well. Absorbance of all wells was determined by measuring OD at 550 nm after a 10 min incubation on a 96-well GlowMaxate absorbance reader (Promega, Madison, Wis.). Each individual compound was tested in quadruplicate wells for each concentration.

Panc-1 = assay: Cancer cell proliferation assay, Panc-1; type: cell-based
Description: as §3

[1] = MCF7, Table 2a, A-ring modified analogues, read-out: IC50 (μM) MCF-7
[2] = MDA-MB-231, Table 2a, A-ring modified analogues, read-out: IC50 (μM) MDA-MB-231
[3] = ASPC1, Table 2a, A-ring modified analogues, read-out: IC50 (μM) AsPC1
[4] = PANC-1, Table 2a, A-ring modified analogues, read-out: IC50 (μM) Panc-1
[5] = MCF7, read-out: IC50 (μM) MCF-7
[6] = MDA-MB-231, read-out: IC50 (μM) MDA-MB-231
[7] = ASPC1, read-out: IC50 (μM) AsPC1
[8] = PANC-1, read-out: IC50 (μM) Panc-1
[9] = MCF7, read-out: Antiproliferative effect MCF-7 (IC50)
[10] = MDA-MB-231, read-out: Antiproliferative effect MDA-MB-231 (IC50)
[11] = MCF7, Table 1b, triazole substituted analogues, mean of three experiments, read-out: IC50 (μM) MCF-7
[12] = MDA-MB-231, Table 1b, triazole substituted analogues, mean of three experiments, read-out: IC50 (μM) MDA-MB-231

SMILES | IC50 (MCF-7; [5]) | IC50 (MDA-MB-231; [6]) | IC50 (AsPC1; [7]) | IC50 (Panc-1; [8]) | IC50 (MCF-7; [11]) | IC50 (MDA-MB-231; [12]) | also measured
C=C1C(=O)[C@@]23[C@@H]4OC(C)(C)OC25OC[C@]2(C=C[C@H](O)C(C)(C)[C@H]2[C@@H]5O)[C@@H]3CC[C@@H]14 [CYD-6-81, (3S,3aR,3a^1R,6aR,7S,7aS,9S,11aR,11bS)-7,9-dihydroxy-5,5,8,8-tetramethyl-15-methylene-2,3,3a,7,7a,8,9,11b-octahydro-1H-6a,11a-(epoxymethano)-3,3a^1-ethanophenanthro[1,10-de][1,3]dioxin-14-one] | – | – | – | – | – | – | IC50 (MCF-7; [1]): 2.56 µM; IC50 (MDA-MB-231; [2]): 10.5 µM; IC50 (AsPC1; [3]): > 10 µM; IC50 (Panc-1; [4]): 5.24 µM
C=C1C(=O)[C@@]23[C@@H]4OC(C)(C)OC25OC[C@]2(C=CCC(C)(C)[C@H]2[C@@H]5O)[C@@H]3CC[C@@H]14 [CYD-6-75, (3S,3aR,3a^1R,6aR,7S,7aR,11aR,11bS)-7-hydroxy-5,5,8,8-tetramethyl-15-methylene-2,3,3a,7,7a,8,9,11b-octahydro-1H-6a,11a-(epoxymethano)-3,3a^1-ethanophenanthro[1,10-de][1,3]dioxin-14-one] | – | – | – | – | – | – | IC50 (MCF-7; [1]): 0.95 µM; IC50 (MDA-MB-231; [2]): 3.95 µM; IC50 (AsPC1; [3]): 6.78 µM; IC50 (Panc-1; [4]): 7.25 µM
C=C1C(=O)[C@@]23[C@@H]4OC(C)(C)OC25OC[C@]2(C(=O)/C(=C\N(C)C)CC(C)(C)[C@H]2[C@@H]5O)[C@@H]3CC[C@@H]14 [CYD-6-77, (3S,3aR,3a^1R,6aR,7S,7aR,11aS,11bS,Z)-10-((dimethylamino)methylene)-7-hydroxy-5,5,8,8-tetramethyl-15-methyleneoctahydro-1H-6a,11a-(epoxymethano)-3,3a^1-ethanophenanthro[1,10-de][1,3]dioxine-11,14(2H)-dione] | 9.07 µM | 165 µM | 11.8 µM | > 10 µM | – | – | –
C=C1C(=O)[C@]23[C@H](O)[C@H]1CC[C@H]2[C@]12C=CC(=O)C(C)(C)[C@H]1[C@H](O)[C@@]3(O)OC2 [CYD-6-93, (4aS,5S,6S,6aR,9S,11aS,11bR,14R)-5,6,14-trihydroxy-4,4-dimethyl-8-methylene-4,4a,5,6,9,10,11,11a-octahydro-3H-6,11b-(epoxymethano)-6a,9-methanocyclohepta[a]naphthalene-3,7(8H)-dione] | 0.71 µM | 10.3 µM | 10.2 µM | 9.67 µM | – | – | IC50 (MCF-7; [9]): 3.48 ± 2.16 µM; IC50 (MDA-MB-231; [10]): 9.39 ± 0.48 µM
C=C1C(=O)[C@@]23C(=O)[C@@H](O)[C@@H]4C(C)(C)[C@@H]5OC[C@]4(C(=O)/C5=C/OC)[C@@H]2CC[C@@H]1[C@H]3O [CYD-7-13] | – | – | – | – | – | – | IC50 (MCF-7; MCF7, Table 1c, dienone analogues, mean ± SE of three experiments, read-out: Antiproliferative effect MCF-7 (IC50)): 10.2 ± 3.07 µM; IC50 (MDA-MB-231; MDA-MB-231, Table 1c, dienone analogues, mean ± SE of three experiments, read-out: Antiproliferative effect MDA-MB-231 (IC50)): > 30 µM
C=C1C(=O)[C@@]23[C@@H]4OC(C)(C)OC25OC[C@]2([C@H](O)[C@@H](n6cc(-c7ccc(C(C)(C)C)cc7)nn6)CC(C)(C)[C@H]2[C@@H]5O)[C@@H]3CC[C@@H]14 [CYD-8-3] | – | – | – | – | 2 µM | 1.1 µM | –
C=C1C(=O)[C@]23[C@H](O)[C@H]1CC[C@H]2[C@@]12COC3(O)[C@@H](O)[C@@H]1C(C)(C)CC1=C2O[C@]2(CC1)CC(C)(C)[C@H]1[C@H](O)[C@]3(O)OC[C@]1(C2=O)[C@@H]1CC[C@H]2C(=C)C(=O)[C@]13[C@@H]2O [CYD-5-40-2, (2R,4aR,5S,6S,6aR,6a′R,7′S,8′S,8a′R,9S,11aS,11bS,11′S,13a′S,13b′S,14R,16′R)-5,6,7′,8′,14,16′-hexahydroxy-4,4,6′,6′-tetramethyl-8,10′-dimethylene-4,4a,5,6,6′,6a′,7′,8′,9,10,11,11a,11′,12′,13′,13a′-hexadecahydro-3′H-spiro[6,11b-(epoxymethano)-6a,9-methanocyclohepta[a]naphthalene-2,2′-8,13b-(epoxymethano)-8a,11-methanocyclohepta[3,4]benzo[1,2-h]chromene]-1,7,9′(3H,4′H,5′H,8H,10′H)-trione] | 4.82 µM | 9.64 µM | 10.2 µM | 8.07 µM | – | – | –
C=C1C(=O)[C@]23[C@H](O)[C@H]1CC[C@H]2[C@@]12COC3(O)[C@@H](O)[C@@H]1C(C)(C)C=C[C@@H]2n1cc(-c2ccccc2)nn1 [CYD-7-90] | – | – | – | – | 2.1 µM | 1.8 µM | –
C=C1C(=O)[C@]23[C@H](O)[C@H]1CC[C@H]2[C@]12C=C[C@@H](n4cc(-c5ccccc5)nn4)C(C)(C)[C@H]1[C@H](O)C3(O)OC2 [CYD-7-82] | – | – | – | – | 2.3 µM | 1.8 µM | –
C=C1C(=O)[C@@]23C(=O)[C@@H](O)[C@@H]4C(C)(C)[C@@H]5OC[C@]4(C(=O)/C5=C\O)[C@@H]2CC[C@@H]1[C@H]3O [CYD-7-5] | > 10 µM | > 10 µM | > 10 µM | > 10 µM | – | – | IC50 (MCF-7; [9]): > 30 µM; IC50 (MDA-MB-231; [10]): > 30 µM
C=C1C(=O)[C@]23[C@H](O)[C@H]1CC[C@H]2[C@@]12COC3(O)[C@@H](O)[C@@H]1C(C)(C)C[C@H](n1cc(-c3ccc(C(C)(C)C)cc3)nn1)[C@H]2O [CYD-8-5] | – | – | – | – | 1.9 µM | 3.5 µM | –
C=C1C(=O)[C@]23[C@H](O)[C@H]1CC[C@H]2[C@@]12COC3(O)[C@@H](O)[C@@H]1C(C)(C)CC13CC[C@]4(CC(C)(C)[C@H]5[C@H](O)[C@]6(O)OC[C@]5(C4=O)[C@@H]4CC[C@H]5C(=C)C(=O)[C@]46[C@@H]5O)OC12O3 (stereo partly drawn) [CYD-6-39, (2R,4aR,4a′R,5′S,6aR,6′S,6a′R,7S,8S,8aR,9′S,11S,11a′S,11b′S,13aS,13bS,13cR,14′R,17R)-5′,6′,7,8,14′,17-hexahydroxy-4′,4′,6,6-tetramethyl-8′,10-dimethylenehexadecahydro-3H-spiro[4a,13c-epoxy-8,13b-(epoxymethano)-8a,11-methanocyclohepta[3,4]benzo[1,2-h]chromene-2,2′-6,11b-(epoxymethano)-6a,9-methanocyclohepta[a]naphthalene]-1′,7′,9(3′H,4H,5H,8′H,10H)-trione] | – | – | – | – | – | – | IC50 (MCF-7; [1]): > 10 µM; IC50 (MDA-MB-231; [2]): > 10 µM; IC50 (AsPC1; [3]): 104 µM; IC50 (Panc-1; [4]): > 10 µM
C=C1C(=O)[C@]23[C@H](O)[C@H]1CC[C@H]2[C@]12C=C[C@H](O)C(C)(C)[C@H]1[C@H](O)[C@@]3(O)OC2 [CYD-6-90, (3S,4aS,5S,6S,6aR,9S,11aS,11bR,14R)-3,5,6,14-tetrahydroxy-4,4-dimethyl-8-methylene-4,4a,5,6,9,10,11,11a-octahydro-3H-6,11b-(epoxymethano)-6a,9-methanocyclohepta[a]naphthalen-7(8H)-one] | – | – | – | – | – | – | IC50 (MCF-7; [1]): 1.21 µM; IC50 (MDA-MB-231; [2]): 26.1 µM; IC50 (AsPC1; [3]): > 10 µM; IC50 (Panc-1; [4]): > 10 µM
C=C1C(=O)[C@@]23[C@@H]4OC(C)(C)OC25OC[C@]2([C@@H](n6cc(-c7ccccc7)nn6)C=CC(C)(C)[C@H]2[C@@H]5O)[C@@H]3CC[C@@H]14 [CYD-7-86] | – | – | – | – | 0.38 µM | 0.48 µM | –
C=C1C(=O)[C@]23[C@H](O)[C@H]1CC[C@H]2[C@]12C=CCC(C)(C)[C@H]1[C@H](O)[C@@]3(O)OC2 [CYD-6-82, (4aR,5S,6S,6aR,9S,11aS,11bR,14R)-5,6,14-trihydroxy-4,4-dimethyl-8-methylene-4,4a,5,6,9,10,11,11a-octahydro-3H-6,11b-(epoxymethano)-6a,9-methanocyclohepta[a]naphthalen-7(8H)-one] | 0.79 µM | 3.9 µM | 1.09 µM | 1.19 µM | – | – | –
